# The source made the active and inactive calls. No cut-off for these calls is given here.
# How the values were obtained:
# SK-HEP1 [1] = experiment: Antiproliferative activity against human SK-HEP1 cells assessed as inhibition of cell proliferation incubated for 72 hrs by MTT assay; assay type: functional, cell-based; conditions: SK-HEP1, 72 h
# Huh-7 [2] = experiment: Antiproliferative activity against human Huh-7 cells assessed as inhibition of colony formation at 10 to 40 nM measured 1 to 2 weeks by human tumor clonogenic assays (HTCA); assay type: functional, cell-based; conditions: dose 10-40 nM, time 1-2 weeks
# [3] = Chemical stability of compound at pH 4.6 assessed as residual rate measured after 2 days; assay type: physicochemical; conditions: buffer, time 2 day, read-out: Stability
# [4] = Chemical stability of compound at pH 5.5 assessed as residual rate measured after 2 days; assay type: physicochemical; conditions: buffer, time 2 day, read-out: Stability
# [5] = Chemical stability of compound at pH 7.4 assessed as residual rate measured after 2 days; assay type: physicochemical; conditions: buffer, time 2 day, read-out: Stability
# [6] = Tmax in Sprague-Dawley rat at 10 mg/kg, ip measured upto 24 hrs by LC-MS/MS analysis; assay type: ADME, organism-based; conditions: in vivo
# [7] = Cmax in Sprague-Dawley rat at 10 mg/kg, ip measured upto 24 hrs by LC-MS/MS analysis; assay type: ADME, organism-based; conditions: in vivo
# [8] = MRT (0 to t) in Sprague-Dawley rat at 10 mg/kg, ip measured upto 24 hrs by LC-MS/MS analysis; assay type: ADME, organism-based; conditions: in vivo
# Huh-7 [9] = experiment: In vivo antitumor activity against human Huh-7 cells subcutaneously injected into BALB/C nude mouse assessed as tumor growth inhibition at 40 mg/kg, ip administered once other day measured after 14 days; assay type: functional; conditions: Huh-7, 336 h, time 14 day, read-out: TGI
# [10] = Toxicity in BALB/c nude mouse subcutaneously injected with human Huh-7 cells assessed as change in body weight at 10 mg/kg, ip administered once daily measured after 14 days; assay type: organism-based; conditions: in vivo, 336 h, time 14 day
# Huh-7 [11] = experiment: Induction of cell cycle arrest in human Huh-7 cells assessed as accumulation of cells at G1 phase 80 nM measured after 24 hrs by flow cytometric assay (reference value: 63.01%); assay type: functional
# Huh-7 [12] = experiment: Induction of cell cycle arrest in human Huh-7 cells assessed as accumulation of cells at G1 phase 20 nM measured after 24 hrs by flow cytometric assay (reference value: 63.01%); assay type: functional
# Huh-7 [13] = experiment: Induction of cell cycle arrest in human Huh-7 cells assessed as accumulation of cells at S phase 20 nM measured after 24 hrs by flow cytometric assay (reference value: 23.33%); assay type: functional
# Huh-7 [14] = experiment: Induction of cell cycle arrest in human Huh-7 cells assessed as accumulation of cells at G1 phase 40 nM measured after 24 hrs by flow cytometric assay (reference value: 63.01%); assay type: functional
# SK-HEP1 [15] = experiment: Induction of cell cycle arrest in human SK-HEP1 cells assessed as accumulation of cells at G1 phase 80 nM measured after 24 hrs by flow cytometric assay (reference value: 47.55%); assay type: functional
# SK-HEP1 [16] = experiment: Induction of cell cycle arrest in human SK-HEP1 cells assessed as accumulation of cells at G1 phase 20 nM measured after 24 hrs by flow cytometric assay (reference value: 47.55%); assay type: functional
# SK-HEP1 [17] = experiment: Induction of cell cycle arrest in human SK-HEP1 cells assessed as accumulation of cells at S phase 20 nM measured after 24 hrs by flow cytometric assay (reference value: 30.04%); assay type: functional
# Huh-7 [18] = experiment: Induction of apoptosis in human Huh-7 cells assessed as viable cells at 80 nM measured after 24 hrs by Annexin-V-FITC/PI analysis (reference value: 97.46%); assay type: functional; conditions: read-out: Activity
# Huh-7 [19] = experiment: Induction of apoptosis in human Huh-7 cells assessed as necrotic cells at 80 nM measured after 24 hrs by Annexin-V-FITC/PI analysis (reference value: 0.27%); assay type: functional
# Huh-7 [20] = experiment: Induction of apoptosis in human Huh-7 cells assessed as late apoptotic cells at 40 nM measured after 24 hrs by Annexin-V-FITC/PI analysis (reference value: 1.23%); assay type: functional
# SK-HEP1 [21] = experiment: Induction of apoptosis in human SK-HEP1 cells assessed as early apoptotic cells at 80 nM measured after 24 hrs by Annexin-V-FITC/PI analysis (reference value: 1.45%); assay type: functional
# SK-HEP1 [22] = experiment: Induction of apoptosis in human SK-HEP1 cells assessed as viable cells at 20 nM measured after 24 hrs by Annexin-V-FITC/PI analysis (reference value: 97.20%); assay type: functional; conditions: read-out: Activity
# SK-HEP1 [23] = experiment: Induction of apoptosis in human SK-HEP1 cells assessed as late apoptotic cells at 20 nM measured after 24 hrs by Annexin-V-FITC/PI analysis (reference value: 0.64%); assay type: functional
# SK-HEP1 [24] = experiment: Induction of apoptosis in human SK-HEP1 cells assessed as necrotic cells at 20 nM measured after 24 hrs by Annexin-V-FITC/PI analysis (reference value: 0.70%); assay type: functional
# SK-HEP1 [25] = experiment: Induction of apoptosis in human SK-HEP1 cells assessed as early apoptotic cells at 40 nM measured after 24 hrs by Annexin-V-FITC/PI analysis (reference value: 1.45%); assay type: functional
# SK-HEP1 [26] = experiment: Induction of apoptosis in human SK-HEP1 cells assessed as necrotic cells at 40 nM measured after 24 hrs by Annexin-V-FITC/PI analysis (reference value: 0.70%); assay type: functional
# Huh-7 [27] = experiment: Induction of apoptosis in human Huh-7 cells assessed as ROS generation by measuring DCFH2-DA stained cells at 80 nM measured after 24 hrs […] (reference value: 0.45%); assay type: functional
# SK-HEP1 [28] = experiment: Induction of apoptosis in human SK-HEP1 cells assessed as ROS generation by measuring DCFH2-DA stained cells at 80 nM measured after 24 hrs […] (reference value: 0.14%); assay type: functional
# SK-HEP1 [29] = experiment: Induction of apoptosis in human SK-HEP1 cells assessed as ROS generation by measuring DCFH2-DA stained cells at 20 nM measured after 24 hrs […] (reference value: 0.14%); assay type: functional
# Huh-7 [30] = experiment: Inhibition of cell migration in human Huh-7 cells at 10 nM measured for 24 hrs by scratch wound healing assay; assay type: functional, cell-based
# Huh-7 [31] = experiment: Inhibition of cell invasion in human Huh-7 cells assessed as decrease in number of cells migration into lower compartment at 20 nM measured after 24 hrs by transwell assay; assay type: functional, cell-based
# SK-HEP1 [32] = experiment: Inhibition of cell migration in human SK-HEP1 cells at 10 nM measured for 24 hrs by scratch wound healing assay; assay type: functional, cell-based
# SK-HEP1 [33] = experiment: Inhibition of cell invasion in human SK-HEP1 cells assessed as decrease in number of cells migration into lower compartment at 20 nM measured after 24 hrs by transwell assay; assay type: functional, cell-based
# [34] = Toxicity in BALB/c nude mouse subcutaneously injected with human Huh-7 cells assessed as changes in spleen tissue at 10 mg/kg, ip administered once daily measured after 14 days by H and E staining based assay; assay type: organism-based; conditions: in vivo, 336 h, time 14 day
# [35] = Toxicity in BALB/c nude mouse subcutaneously injected with human Huh-7 cells assessed as change in red blood cells at 10 mg/kg, ip administered once daily measured after 14 days; assay type: organism-based; conditions: in vivo, 336 h, time 14 day
# [36] = Toxicity in BALB/c nude mouse subcutaneously injected with human Huh-7 cells assessed as change in body weight at 10 to 20 mg/kg, ip administered once daily measured after 14 days; assay type: organism-based; conditions: in vivo, 336 h, dose 10-20 mg/kg, time 14 day
compound,measurement,setting,value
C[N+](C)(C)CCC(=O)Oc1ccc2[nH]c3c(c2c1)CCN1C(=O)c2cc(F)cc(F)c2N(c2cccc(F)c2)C31.[I-] (stereo unspecified),IC50,SK-HEP1 [1],30 nM
same,Activity,Huh-7 [2],Active
same,remaining at 48 h,[3],63.1%
same,remaining at 48 h,[4],55.8%
same,remaining at 48 h,[5],43.9%
same,Tmax,[6],1.67 h
same,Cmax,[7],240 ng/mL
same,MRT last at 24 h,[8],4.64 h
same,inhibition in vivo at 40 mg/kg,Huh-7 [9],51.1%
same,Activity,[10],Non-Toxic
same,Activity,Huh-7 [11],6.79%
same,Activity,Huh-7 [12],66.72%
same,Activity,Huh-7 [13],27.35%
same,Activity,Huh-7 [14],66.98%
same,Activity,SK-HEP1 [15],13.31%
same,Activity,SK-HEP1 [16],47.61%
same,Activity,SK-HEP1 [17],28.78%
same,viability at 0.08 µM,Huh-7 [18],79.7%
same,Activity,Huh-7 [19],0.83%
same,Activity,Huh-7 [20],2.89%
same,Activity,SK-HEP1 [21],22.57%
same,viability at 0.02 µM,SK-HEP1 [22],97.2%
same,Activity,SK-HEP1 [23],0.71%
same,Activity,SK-HEP1 [24],0.47%
same,Activity,SK-HEP1 [25],5.11%
same,Activity,SK-HEP1 [26],0.49%
same,Activity,Huh-7 [27],17.92%
same,Activity,SK-HEP1 [28],56.75%
same,Activity,SK-HEP1 [29],0.47%
same,inhibition,Huh-7 [30],Active
same,inhibition,Huh-7 [31],Active
same,inhibition,SK-HEP1 [32],Active
same,inhibition,SK-HEP1 [33],Active
same,Activity,[34],Non-Toxic
same,Activity,[35],Non-Toxic
same,Activity,[36],Non-Toxic

# Reference: ChEMBL document CHEMBL6071160, “Identification of a novel 10-hydroxyevodiamine prodrug as a potent topoisomerase inhibitor with improved aqueous solubility for treatment of hepatocellular carcinoma” (Eur J Med Chem, 2024)
